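Five concentrations, 48 hours, 96-well plates. GI50 is the concentration that inhibits growth by half. The concentration for full growth arrest is given as TGI.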
Columns and labels:
Test in all cases: growth of human tumour cells (NCI), 48 h
[1] = test system: MDA-MB-435
[2] = test system: SF-539 CNS
[3] = test system: HT29 colon
[4] = test system: HCC-2998 colon
[5] = test system: UACC-62 melanoma
[6] = test system: COLO 205 colon
[7] = test system: NCI-H226 lung
[8] = test system: NCI/ADR-RES ovarian
[9] = test system: A498 renal
[10] = test system: OVCAR-4 ovarian
[11] = test system: NCI-H522 lung
[12] = test system: SR leukemia
[13] = test system: NCI-H460 lung
[14] = test system: OVCAR-3 ovarian
[15] = test system: UACC-257 melanoma
[16] = test system: OVCAR-8 ovarian
[17] = test system: M14 melanoma
[18] = test system: LOX IMVI melanoma
[19] = test system: EKVX NSCLC
[20] = test system: SK-OV-3 ovarian
[21] = test system: HOP-92 NSCLC
[22] = test system: SNB-19 CNS
[23] = test system: SK-MEL-28 melanoma
[24] = test system: SN12C renal
[25] = test system: HL-60(TB) leukemia
[26] = test system: UO-31 renal
[27] = test system: ACHN renal
[28] = test system: MOLT-4 leukemia
[29] = test system: MDA-MB-231 breast
[30] = test system: SK-MEL-2 melanoma

Compound: Cc1ccc(O)cc1Nc1nc(SCCN2CCOCC2)nc2c1cnn2CC(Cl)c1ccc(Br)cc1 (centres undefined)
- GI50 [1]: 4.72 µM
- TGI [1]: 21.5 µM
- GI50 [2]: 3.05 µM
- TGI [2]: 13.9 µM
- GI50 [3]: 3.36 µM
- TGI [3]: 13.6 µM
- GI50 [4]: 3.93 µM
- TGI [4]: 15.2 µM
- GI50 [5]: 3.05 µM
- TGI [5]: 15.5 µM
- GI50 [6]: 17.6 µM
- TGI [6]: 42.2 µM
- GI50 [7]: 3.39 µM
- TGI [7]: 20.4 µM
- GI50 [8]: 3.13 µM
- TGI [8]: 17.3 µM
- GI50 [9]: 6.88 µM
- TGI [9]: 21.7 µM
- GI50 [10]: 6.84 µM
- TGI [10]: > 100 µM
- GI50 [11]: 2.87 µM
- TGI [11]: 16.5 µM
- GI50 [12]: 2.34 µM
- TGI [12]: 17.5 µM
- GI50 [13]: 4.26 µM
- TGI [13]: 21.8 µM
- GI50 [14]: 11 µM
- TGI [14]: 64.9 µM
- GI50 [15]: 9.87 µM
- TGI [15]: 24.7 µM
- GI50 [16]: 4.45 µM
- TGI [16]: 21.2 µM
- GI50 [17]: 2.85 µM
- TGI [17]: 15.2 µM
- GI50 [18]: 1.52 µM
- TGI [18]: 3.49 µM
- GI50 [19]: 3.93 µM
- TGI [19]: 60.4 µM
- GI50 [20]: 13.6 µM
- TGI [20]: 73.4 µM
- GI50 [21]: 2.06 µM
- TGI [21]: 8.12 µM
- GI50 [22]: 5.93 µM
- TGI [22]: 43.4 µM
- GI50 [23]: 4.21 µM
- TGI [23]: 17.4 µM
- GI50 [24]: 2.12 µM
- TGI [24]: 13.3 µM
- GI50 [25]: 5.18 µM
- TGI [25]: 28.4 µM
- GI50 [26]: 2.25 µM
- TGI [26]: 31.5 µM
- GI50 [27]: 2.21 µM
- TGI [27]: 15.4 µM
- GI50 [28]: 2.65 µM
- TGI [28]: 14.5 µM
- GI50 [29]: 2.5 µM
- TGI [29]: 14.3 µM
- GI50 [30]: 11.2 µM
